Measured values: US9644181B2, “Cell preparation containing myocardium-committed cell” (RIKEN, priority 2012, dated 2017)

Key:
[1] = tested on: adipose-tissue-derived multi-lineage/multi-potent progenitor cells (ADMPC); test: Comparison of the induction of the expression of various markers by spermine and DMSO; assay type: cell-based, human
Experimental: (§1) Adipose tissues were provided by subjects from whom informed consent had been obtained by suction surgery from subcutaneous tissues. Neither steroid agent nor TZD had been administered to any of the subjects. Adipose tissues were cut into small pieces. Next, digestion was performed for 1 hour with shaking in 0.067% collagenase (Roche applied science)-containing Hanks' Balanced Salt Solution (HBSS) in a water bath at 37° C. The digested products were filtered through a Cell Strainer (BD Bioscience) and then centrifuged at 800 g for 10 minutes. Erythrocytes were removed by a specific gravity method using Lymphoprep (d=1.077) (Nycomed). The thus obtained Stromal Vascular Fraction (cells) was seeded into DMEM containing 10% fetal calf serum (Life Technologies). Cells were cultured for 24 hours so that they would adhere. After washing, the resultant was treated with EDTA, and ADMPC were thereby obtained. Next, ADMPC were seeded on a human-fibronectin-coated dish in medium I: 60% DMEM-low glucose, 40% MCDB201, […], 1 nM dexamethasone, 100 μM ascorbic acid, and 5% FBS at a density of 10,000 cells/cm^2, passaged 3 to 5 times, and then used for experiments.
(§2) Total RNA was isolated from the thus obtained cells using an RNeasy mini kit (Qiagen) according to protocols recommended by the manufacturer. Total RNA (500 ng) was subjected to DNase treatment, and then cDNA was synthesized using Superscript III reverse transcriptase RNase H (-) (Life Technologies).
(§3) Subsequently, TaqMan Universal PCR Master Mix (Applied Biosystems) (10 μl) and TaqMan Gene Expression Assays (Applied Biosystems) (1 μl) were added to the thus prepared cDNA (9 μl). Real-time PCR was performed using an Applied Biosystems 7900 Fast Real-Time PCR system under the following conditions: denaturation at 95° C. for 10 minutes and 40 cycles of 95° C. for 15 seconds and 60° C. for 1 minute. TaqMan probes and assay IDs (available from GenBank/NCBI (U.S.A.)) used for Islet-1, Nkx2.5, GATA-4, α-CA, cardiac troponin I, MLC, MHC, and GAPDH are listed in Table 1 below.
ADMPC passaged 4 times by plate culture were detached and washed with TrypLE Select (Life Technologies; the same applies hereafter) and were suspended at a concentration of 1×10^5/mL in Knockout-DMEM (Life Technologies; the same applies hereafter) supplemented with 0, 5, 25, 50, 100, 200, or 500 μM or 1 mM spermine (Wako Pure Chemical Industries, Ltd. (Japan); the same applies hereafter) and 20% KSR (Knockout Serum Replacement; Life Technologies; the same applies hereafter). 10 mL of cells was seeded on an EZ-Sphere low-adhesion culture dish (diameter: 10 cm, AGC; the same applies hereafter), and then suspension culture was performed. […]

[2] = tested on: adipose-tissue-derived multi-lineage/multi-potent progenitor cells (ADMPC); conditions: FIG. 1
Experimental: as §1
Total RNA was isolated from the thus obtained cells using an RNeasy mini kit (Qiagen) according to protocols recommended by the manufacturer. […]

[3] = tested on: adipose-tissue-derived multi-lineage/multi-potent progenitor cells (ADMPC); test: Induction of the expression of myocardium-committed-cell markers in ADMPC, concentration series (TaqMan PCR, GAPDH ratios); assay type: cell-based, human
Experimental: as §1, §2, §3
ADMPC passaged 4 times by plate culture were detached and washed with TrypLE Select (Life Technologies; the same applies hereafter) and were suspended at a concentration of 1×10^5/mL in Knockout-DMEM (Life Technologies; […], Ltd. (Japan); the same applies hereafter) and 20% KSR (Knockout Serum Replacement; Life Technologies; the same applies hereafter). 10 mL of cells was seeded on an EZ-Sphere low-adhesion culture dish (diameter: 10 cm, AGC; the same applies hereafter), and then suspension culture was performed. After 24 hours, cells were collected, quantitative analysis of expression was performed by TaqMan PCR, and then GAPDH ratios were calculated.

Structure (SMILES): C[S+](C)[O-] [DMSO]
- Cardiac troponin I/DMSO ratio ([1]; 0.1% in medium, 48 hours): 1
- Cardiac α-actin/DMSO ratio ([1]; 0.1% in medium, 48 hours): 1
- GATA4/DMSO ratio ([1]; 0.1% in medium, 48 hours): 1
- Isl1/DMSO ratio ([1]; 0.1% in medium, 48 hours): 1
- MHC/DMSO ratio ([1]; 0.1% in medium, 48 hours): Not detected
- MLC/DMSO ratio ([1]; 0.1% in medium, 48 hours): 1
- Nkx2.5/DMSO ratio ([1]; 0.1% in medium, 48 hours): 1

Structure (SMILES): NCCCNCCCCNCCCN [Spermine, spermine]
- effect of presence or absence of growth factors (EGF, bFGF) on the expression levels ([2]; 100 μM spermine): did not significantly affect
- expression of isl-1, nkx2.5, GATA-4, α-CA, cardiac troponin I, MHC and MLC ([2]; 100 μM, 24, 72 and 120 hours): Expression was confirmed
- expression of isl-1, nkx2.5, GATA-4, α-CA, cardiac troponin I and MHC ([3]; spermine 0, 5, 25, 50, 100, 200, 500 μM or 1 mM, suspension culture 24 hours): expression was confirmed
- concentration at which all markers exhibited the highest expression levels ([3]; spermine series 0-1 mM, 24 hours): 100 µM
- expression levels of all markers, treatment with spermine compared with treatment with DMSO ([1]; 100 μM spermine 24, 72, 120 hours vs 0.1% DMSO 48 hours): several to several hundred times greater
- Cardiac troponin I/DMSO ratio ([1]; 100 μM, 1 day culture): 7.91
- Cardiac α-actin/DMSO ratio ([1]; 100 μM, 1 day culture): 192.84
- GATA4/DMSO ratio ([1]; 100 μM, 1 day culture): 3.75
- Isl1/DMSO ratio ([1]; 100 μM, 1 day culture): 6.79
- MHC/DMSO ratio ([1]; 100 μM, 1 day culture): 2.31 × 10^−6
- MLC/DMSO ratio ([1]; 100 μM, 1 day culture): 0.67
- Nkx2.5/DMSO ratio ([1]; 100 μM, 1 day culture): 3.58
- Cardiac troponin I/DMSO ratio ([1]; 100 μM, 3 days culture): 25.16
- Cardiac α-actin/DMSO ratio ([1]; 100 μM, 3 days culture): 169.75
- GATA4/DMSO ratio ([1]; 100 μM, 3 days culture): 8.19
- Isl1/DMSO ratio ([1]; 100 μM, 3 days culture): 10.44
- MHC/DMSO ratio ([1]; 100 μM, 3 days culture): 3.74 × 10^−5
- MLC/DMSO ratio ([1]; 100 μM, 3 days culture): 0.88
- Nkx2.5/DMSO ratio ([1]; 100 μM, 3 days culture): 5.19
- Cardiac troponin I/DMSO ratio ([1]; 100 μM, 5 days culture): 11.87
- Cardiac α-actin/DMSO ratio ([1]; 100 μM, 5 days culture): 42.85
- GATA4/DMSO ratio ([1]; 100 μM, 5 days culture): 12.15
- Isl1/DMSO ratio ([1]; 100 μM, 5 days culture): 3.49
- MHC/DMSO ratio ([1]; 100 μM, 5 days culture): 7.67 × 10^−6
- MLC/DMSO ratio ([1]; 100 μM, 5 days culture): 0.45
- Nkx2.5/DMSO ratio ([1]; 100 μM, 5 days culture): 7.47

Structure (SMILES): NCCCCNCCCN [spermidine]
- expression of isl-1, nkx2.5 and GATA-4 ([3]; spermidine 0, 5, 25, 50, 100, 200, 500 μM or 1 mM, suspension culture 24 hours): expression was confirmed
- concentration at which all markers (isl-1, nkx2.5, GATA-4) exhibited the highest expression levels ([3]; spermidine series 0-1 mM, 24 hours): 200 µM
